Source: patent US8598209B2, “P2X3, receptor antagonists for treatment of pain” (Merck Sharp & Dohme Corp., priority 2008, dated 2013)
pIC50: −log10 of the molar value.

biological target: T1, human P2X3 (Homo sapiens, UniProt P56373); assay: Intracellular Calcium Measurement to Assess Antagonist Affinity (FLIPR, Fluo-4), human P2X3 cells; format: cell-based; conditions: Intracellular Calcium Measurement to Assess Antagonist Affinity assay; agonist α,β-meATP at EC50
T1 construct: expressed in transfected cells
T1 sequence (P56373 1-397): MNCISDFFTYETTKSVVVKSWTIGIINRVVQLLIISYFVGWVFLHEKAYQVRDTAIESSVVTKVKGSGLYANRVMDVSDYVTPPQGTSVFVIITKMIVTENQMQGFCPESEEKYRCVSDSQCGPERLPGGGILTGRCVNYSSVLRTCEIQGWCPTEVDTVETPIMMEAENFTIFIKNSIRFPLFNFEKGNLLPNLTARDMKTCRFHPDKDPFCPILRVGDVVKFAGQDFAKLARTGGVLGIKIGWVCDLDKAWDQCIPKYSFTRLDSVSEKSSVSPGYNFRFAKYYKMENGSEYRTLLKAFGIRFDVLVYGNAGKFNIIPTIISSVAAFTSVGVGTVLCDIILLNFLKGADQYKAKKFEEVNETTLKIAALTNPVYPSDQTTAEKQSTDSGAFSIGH
Excerpt: Generation of a Human P2X3 and P2X2/3 Stable Cell Line—
Human P2X3 receptor cDNA (Accession number NM_002559) was subcloned as a 5′XhoI and 3′HindIII fragment into the expression vector pcDNA5/FRT (Invitrogen). Human P2X2 receptor cDNA (Accession number NM_174873) was subcloned as a 5′EcoRI and 3′NotI fragment into the expression vector pIRESneo2 (BD Biosciences Clontech). The human P2X3 expression construct was transfected using Lipofectamine 2000 (Invitrogen) into Flp-in—293 cells (Invitrogen) according to the manufacturer's directions. Cells positive for flp-mediated recombination of […] P2X3 were selected using 150 μg/ml hygromycin. The stable human P2X3 cell line was co-transfected with the human P2X2 expression construct using Lipofectamine 2000 as above and co-transfected cells selected using […] hygromycin and 1 mg/ml G418. The stable P2X3 cell line was propagated in DMEM, 10% FBS, 100 μg/ml hygromycin, and 100 units/ml penicillin and 100 μg/ml streptomycin, and maintained at 37° and 95% humidity. The stable P2X2/3 cell line was propagated as above with the addition of 500 μg/ml G418.
Intracellular Calcium Measurement to Assess Antagonist Affinity—
A fluorescent imaging plate reader (FLIPR; Molecular Devices) was used to monitor intracellular calcium levels using the calcium-chelating dye Fluo-4 (Molecular Probes). The excitation and emission wavelengths used to monitor fluorescence were 488 nm and 530 nm, respectively. Cells expressing either human P2X3 or human P2X2/3 were plated at a density of 20,000 cells/well (20 μl/well) in 384-well black-walled plates approximately 20 hours before beginning the assay. On the day of the assay 20 μl of loading buffer (Hank's balanced salt solution, 2.5 mM CaCl2, 20 mM HEPES, 0.1% BSA, 2.5 mM probenecid, TR-40, Fluo-4, and 138 mM NMDG substituted for NaCl) is added and cells dye-loaded for 60 min in the dark at room temperature. Ten minutes prior to adding agonist, the antagonist was added in a volume of 10 μl and allowed to incubate at room temperature. During this period fluorescence data is collected at 3 sec intervals followed by 10 sec intervals. The agonist, α,β-meATP, is added at a 6× concentration ([α,β-meATP]final=EC50). Following agonist addition fluorescence was measured at 5 sec intervals and analyzed based on the increase in peak relative fluorescence units (RFU) compared to the basal fluorescence. Peak fluorescence was used to determine the inhibitory effect at each concentration of antagonist by the following equation: % Inhibition=100*(1−((RFU(drug)−RFU(control))/(RFU(DMSO only)−RFU(control)))) In vitro Electrophysiological Assay—

Q: How did the pIC50 turn out when `C[C@@H](NC(=O)c1cc(-c2ccc(F)cc2F)nc(C(C)(C)O)c1)c1ccc(C(F)(F)F)[n+]([O-])c1` [Example 1.62, 2-(2,4-Difluorophenyl)-6-(1-hydroxy-1-methylethyl)-N-{(1R)-1-[1-oxido-6-(trifluoromethyl)pyridin-3-yl]ethyl}isonicotinamide] was run?
A: Its pIC50 is 7.64.

Q: With `Cc1ccc(-c2cc(C(=O)N[C@@H](C)c3nnc[nH]3)nc(-c3ccc(C)cc3)n2)cc1` [Example 2.1] as the compound, how does the pIC50 read?
A: Its pIC50 is 6.78.

Q: With `Cc1ccc(-c2cc(C(=O)N[C@H](C)c3nc(C)no3)cnc2OC(C)C)cc1` [Example 3.22] as the compound, how does the pIC50 read?
A: Its pIC50 is 7.38.

Q: How did the pIC50 turn out when `Cc1noc([C@@H](C)NC(=O)c2cc(-c3ccc(F)cc3)c(=O)n(C(C)C)c2)n1` [Example 5.61, 5-(4-fluorophenyl)-1-isopropyl-N-[(1R)-1-(3-methyl-1,2,4-oxadiazol-5-yl)ethyl]-6-oxo-1,6-dihydropyridine-3-carboxamide] was run?
A: Its pIC50 is 7.32.
